{"source": "patent US10716797B2", "about": "“Steroid alkaloids and compositions and kits thereof” (priority 2013, dated 2020)", "key": {"[1]": {"tested_on": "methicillin-resistant Staphylococcus aureus (MRSA) strains", "assay": "MIC against MRSA strains", "assay_type": "cell-based", "description": "Method. The minimal inhibitory concentrations (MICs), (i.e. lowest concentration of an antimicrobial that will inhibit the visible growth of a microorganism after incubation), of test compounds were determined against the normal or SCV strains of bacterial species from the Firmicutes phylum. Briefly, MICs were determined using the microdilution method in 96-well plates (Clinical and Laboratory Standards Institute (CLSI), 2011). Bacteria were inoculated at ˜10^5-10^6 CFU/mL and incubated at 35° C. for 20 h (normal strains) or 48 h (SCVs) in brain heart infusion (BHI) broth in order to allow SCVs to reach maximal growth as previously described (Mitchell et al., 2012). Then OD595 nm was read on a microplate reader. […] In this example the range of compound concentrations tested was 0.03 to 64 μg/ml using doubling increments. Strain Staphylococcus aureus NewbouldΔhemB (hemB) was also used in the experiments and is a laboratory-derived stable SCV created by the insertion of the macrolide resistance gene ermA in the hemB gene of this strain to create the SCV phenotype (defective electron transport chain and respiratory deficiency) through inactivation of hemin biosynthesis (Brouillette et al., 2004).\nIn the present Example the range of compound concentrations tested, using doubling increments, was 0.03 to 64 μg/ml for Compound 14 and up to 1024 μg/ml for gentamicin (GEN), kanamycin (KAN) and cefalexin (CEF) when these compounds were used alone. Compound 14 (Cpd 14) was used at a fixed concentration of 4 μg/ml when added to other antibiotics. The combination of CEF and KAN was used in a 3:2 ratio and doubling increments were used to test the antibacterial activity against MRSA in the absence or presence of Compound 14."}, "S. aureus hemB (SaR1)": {"tested_on": "S. aureus hemB (SaR1)", "assay": "MIC against tomatidine-resistant SCV mutant SaR1", "assay_type": "cell-based, Staphylococcus aureus", "description": "At each passage, using a microdilution method in 96-well microplates, S. aureus hemB was inoculated at ˜10^5-10^6 CFU/ml and incubated at 35° C. for 48 h. The range of tomatidine concentrations tested was 0.03 to 64 μg/ml using doubling increments. The concentration of gentamicin was fixed at 4 μg/mL when it was used in combination with tomatidine. At each passage, the minimal inhibitory concentrations (MICs) (i.e. lowest concentration of an antimicrobial that inhibits the visible growth of bacteria), of tomatidine was determined. The bacteria used as inoculum for the next passage were from the well preceeding the well showing the MIC (i.e. the well containing half the MIC). At each passage, the population of bacteria serving as the inoculum for the next passage was spread on BHI agar plates and three isolated colonies were collected and frozen until used for whole-genome sequencing."}, "[2]": {"tested_on": "S. aureus SCV strain CF07-S in polarized Calu-3 epithelial cells", "assay": "Intracellular replication of SCV in Calu-3 cell infection assay", "assay_type": "cell-based, Staphylococcus aureus", "conditions": "2 and 4 μg/ml; 48 h post-internalization; vs DMSO-treated cells; hydrochloride", "description": "Human airway epithelial cells, the Calu-3 cell line ATCC HTB 55, were used in this cell culture assay. Cells were cultured in Eagle's Minimum Essential Medium (EMEM) supplemented with 0.1 mM MEM nonessential amino acids, 1 mM of sodium pyruvate, 100 U/ml penicillin, 0.1 mg/ml streptomycin, 2.5 μg/ml of Fungizone and 10% fetal bovine serum (FBS) at 37° C. in 5% CO2. For routine culture, 4 μg/ml of puromycin was added to culture media. All cell culture reagents were purchased from Wisent (St-Bruno, QC, Canada). Cell infection assays were performed as previously described (Mitchell et al., 2011). Cells were seeded at 2.5×10^5 cells/inserts on 12-well Transwell™ plates and cultured for 9 to 10 days in an air:liquid system. The complete medium in the basal compartment was replaced by the invasion medium (1% FBS and no antibiotics) 18 h before assays. Inocula were prepared by suspending bacteria grown 20 h on BHIA plates in ice-cold PBS. Bacteria (the S. aureus SCV strain CF07-S; Mitchell et al., 2011) were then washed three times in ice-cold PBS and suspended in the invasion medium supplemented with 0.5% BSA at a density of approximately 4×10^8 CFU/ml. […] Fresh invasion medium supplemented with lysostaphin was also added 1 h before cell lysis to ensure that only intracellular bacteria were counted. […]"}, "[3]": {"tested_on": "S. aureus SCV strain hemB", "assay": "Murine lung infection (pneumonia) model", "assay_type": "in vivo, mouse", "conditions": "mice; intratracheal, 4 h post-infection; lungs 24 h post-infection; hydrochloride", "description": "Compound efficacy in a lung infection (pneumonia) model was evaluated as follow (Ragle et al, 2010; Mitchell et al, 2013): Mice (36) were challenged with an intra-tracheal injection of S. aureus SCV strain hemB (10^7 CFU) (10^7 CFU) (normal S. aureus could also have been used, mixed or not with P. aeruginosa for a co-infection). […] More particularly, 11 mice were untreated (Unrteated); 4 mice were treated with 10 μg of tomatidine (TO (10)); 4 mice were treated with 100 μg of tomatidine (TO (100)); 3 mice were treated with 10 μg of compound 14 (Compound 14 (10)); 8 mice were treated with 100 μg of compound 14 (Compound 14 (100)); and 6 mice were treated with 200 μg of compound 14 (Compound 14 (200)). Mice were euthanized 24 h post-infection. The lungs were recovered, homogenized, and bacterial CFU per g of tissue were determined by plating appropriate dilutions on Brain Hearth Infusion agar media (other media such as for example, mannitol salt agar for S. aureus or cetrimide plates for P. aeruginosa could be used).\nEach dot represents the CFU per g of tissue for one mouse. The boxes represent the CFU data distribution, the first quartile, the median and the third quartile. Statistical differences (P<0.001) between CFU recovered from treated and untreated animals are shown by asterisks (non-parametric Kruskal-Wallis ANOVA with Dunn's post test)."}}, "note": "“Also recorded” adds a separate entry of the source.", "data": [{"substance": "3-(N-aminoethyl)-aminotomatidine hydrochloride [Compound 14]", "values": [{"measurement": "potentiation fold on addition of Compound 14 to cefalexin:kanamycin combination", "setting": "[1]; MRSA strains resistant to both cefalexin and kanamycin", "result": 32, "unit": "fold"}, {"measurement": "MIC on MRSA strains", "setting": "[1]; used alone, tested MRSA strains (kanamycin: two of the strains)", "result": 16, "unit": "µg/mL"}, {"measurement": "Fold increase in resistance (MIC for mutant / MIC for NewbouldΔhemB)", "setting": "S. aureus hemB (SaR1); mutant SaR1", "result": 16, "unit": "fold"}, {"measurement": "MIC", "setting": "S. aureus hemB (SaR1); tomatidine-resistant mutant SaR1", "result": 8, "unit": "µg/mL"}, {"measurement": "intracellular SCVs in Calu-3 cells (CFU)", "setting": "[2]", "result": "can significantly decrease the infection; also recorded: significantly less SCVs"}, {"measurement": "bacterial load in lungs (CFU per g of tissue)", "setting": "[3]", "result": "significantly reduce the bacterial load; also recorded: superior to tomatidine hydrochloride salt"}]}]}
